From US12060360B2, “Lysyl oxidase inhibitors” (The Institute of Cancer Research: Royal Cancer Hospital, priority 2017, dated 2024)
pIC50: −log10 of the molar value.

Molecular target: T1, LOX (Mus musculus, UniProt P28301)
T1 construct: Full length LOX cDNA was then PCR cloned into pEGFP-N1 (Clonetech), or biosensor vector proGFP2-N1; expressed in transfected cells; host or cells: MDCK cells grown as cysts on Matrigel, G418-selected
T1 sequence (P28301 163-411): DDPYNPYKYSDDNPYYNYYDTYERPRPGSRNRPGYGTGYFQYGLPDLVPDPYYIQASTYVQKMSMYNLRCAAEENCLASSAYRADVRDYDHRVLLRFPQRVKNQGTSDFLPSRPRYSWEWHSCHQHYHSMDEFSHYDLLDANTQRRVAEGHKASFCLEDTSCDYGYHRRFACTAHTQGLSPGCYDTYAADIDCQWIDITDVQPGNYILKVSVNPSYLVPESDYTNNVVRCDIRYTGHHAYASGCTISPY
Assay: LOX activity in cysts assay (LOX-roGFP2 biosensor, MDCK cysts)
Format: cell-based
Settings: MDCK cysts; for inhibition at 10 µM: inhibitor added 30 min prior to imaging, read-out: LOX biosensor inhibition (cyst) @ 10 uM; for inhibition at 10 µM / inhibition at 2.5 µM: DMSO = 0%, BAPN 1 mM = 100% inhibition; for pIC50: roGFP2 ratio at basal surface, read-out: LOX biosensor IC50 (cyst); for inhibition at 2.5 µM: 2.5 uM (stated in cell), read-out: LOX biosensor inhibition (cyst) @ 2.5 uM
Method: LOX Activity in Cysts Assay (Tang et al, 2017).
All cell lines used in this study were purchased from American Type Culture Collection (ATCC). Mycoplasma contamination was routinely monitored by PCR. Cells used were not found to be Mycoplasma positive. MDCK cell lines were cultured in Dulbecco's Modified Eagle Medium (DMEM) supplemented with 10% fetal bovine serum (FBS) and 1% Penicillin Streptomycin solution (Pen Strep). For GFP constructs transfection in MDCK cells, lipofectamine 3000 was used according to manufactures protocols. Cells were either selected with G418 (Life Technologies) at 5 mg/ml. All cell culture reagents were purchased from Life Technologies.
To produce MDCK cysts, cells were cultured on Matrigel (Corning) with 2% Matrigel supplemented in DMEM with 10% FBS. Cysts were allowed to form for 10 days before subsequent studies.
Mouse LOX cDNA was purchased from OriGene. Full length LOX cDNA was then PCR cloned into pEGFP-N1 (Clonetech), or biosensor vector proGFP2-N1 (Hanson, 2004) using the following primers, […] (forward primer) and […] (reverse primer). For the insertion into pEGFP-N1 or proGFP2-N1, NheI and XhoI restriction sites were added to forward and reverse primers accordingly. Mutant LOX constructs were made using QuickChange II site-directed mutagenesis kit (Agilent Technologies) following manufacture's protocol using LOX-GFP as template. To generate, roGFP2 versions of LOX mutant constructs, LOX mutant cDNA was transferred from pEGFP-N1 to proGFP2-N1 using NheI and XhoI.
All photomicrographs were taken with a Leica TCS SP8 X confocal system. For LOX biosensor imaging, live MDCK cysts were used. The oxidised biosensor was excited using a 405 nm laser, while the reduced biosensor was excited with a 488 nm laser. Emission of the biosensor was recorded at 500 nm˜530 nm range using sequential scans. Ratio images were generated following a published protocol {Kardash, 2011 #376}. Note, while the published protocol generates YFP/CFP ratio images, we used it to generate Oxidised/Reduced (roGFP2 ratio) ratio images. The roGFP2 ratio at the basal surface of MDCK cysts was used to indicate LOX inhibition. LOX inhibitors were added 30 min prior to imaging.
For clarity, readout for DMSO treated cysts represents 0% inhibition (no inhibition) and readout for BAPN at 1 mM is used as 100% inhibition (full inhibition).

SMILES | inhibition at 10 µM [%] | pIC50 | inhibition at 2.5 µM [%]
CCOc1cccc(N2C[C@H]3CN(C(=O)NCCO)C[C@@H]2C(C)(C)C3)c1 [Example 24, (1S,5S)-6-(3-ethoxyphenyl)-N-(2-hydroxyethyl)-9,9-dimethyl-3,6-diazabicyclo[3.2.2]nonane-3-carboxamide] | 100 | > 6.20 | –
CCOc1ccc(N2C[C@@H]3CN(C(=O)NCCO)C[C@H]2C(C)(C)C3)cc1 [Example 21, (1R,5R)-6-(4-ethoxyphenyl)-N-(2-hydroxyethyl)-9,9-dimethyl-3,6-diazabicyclo[3.2.2]nonane-3-carboxamide] | 94 | – | –
CCOc1ccc(N2C[C@H]3CN(CC4(CC#N)CC4)C[C@@H]2C(C)(C)C3)cc1 [Example 43, 2-(1-(((1R,5S)-6-(4-ethoxyphenyl)-9,9-dimethyl-3,6-diazabicyclo[3.2.2]nonan-3-yl)methyl)cyclopropyl)acetonitrile] | 59 | – | –
CCNC(=O)N1C[C@@H]2CN(c3ccc(F)cc3)[C@H](C1)C(C)(C)C2 [Example 2, (1 S,5S)—N-ethyl-6-(4-fluorophenyl)-9,9-dimethyl-3,6-diazabicyclo[3.2.2]nonane-3-carboxamide] | – | – | 92
CCOc1ccc(N2C[C@H]3CN(C4CCN(C)CC4)C[C@@H]2C(C)(C)C3)cc1 [Example 47, (1R,5S)-6-(4-ethoxyphenyl)-9,9-dimethyl-3-(1-methylpiperidin-4-yl)-3,6-diazabicyclo[3.2.2]nonane] | 90 | – | –
C#CCCCN1C[C@@H]2CN(c3ccc(OCC)cc3)[C@H](C1)C(C)(C)C2 [Example 44, (1R,5S)-6-(4-ethoxyphenyl)-9,9-dimethyl-3-(pent-4-yn-1-yl)-3,6-diazabicyclo[3.2.2]nonane] | – | 6.51 | 66
CCOc1ccc(N2C[C@H]3CC(C)(C)[C@@H]2CCN3C(=O)NCCO)cc1 [Example 22, (1R,5S)-6-(4-ethoxyphenyl)-N-(2-hydroxyethyl)-9,9-dimethyl-2,6-diazabicyclo[3.2.2]nonane-2-carboxamide] | 100 | – | –
CCOc1ccc(N2C[C@H]3CN(CCCC#N)C[C@@H]2C(C)(C)C3)cc1F [Example 45, 4-((1R,5S)-6-(4-Ethoxy-3-fluorophenyl)-9,9-dimethyl-3,6-diazabicyclo[3.2.2]nonan-3-yl)butanenitrile] | 42 | – | –
CCOc1ccc(N2C[C@H]3CN(C(=O)N4CCC(N5CCCC5)CC4)C[C@@H]2C(C)(C)C3)cc1 [Example 18, ((1S,5S)-6-(4-ethoxyphenyl)-9,9-dimethyl-3,6-diazabicyclo[3.2.2]nonan-3-yl)(4-(pyrrolidin-1-yl)piperidin-1-yl)methanone] | 84 | – | –
CC1(C)C[C@@H]2CN(C(=O)N3CCS(=O)(=O)CC3)C[C@H]1N(c1cccc(N3CCS(=O)(=O)CC3)c1)C2 [Example 64, (1,1-dioxidothiomorpholino)((1S,5S)-6-(3-(1,1-dioxidothiomorpholino)phenyl)-9,9-dimethyl-3,6-diazabicyclo[3.2.2]nonan-3-yl)methanone] | 100 | – | –
CCOc1ccc(N2C[C@H]3CN(S(=O)(=O)c4ccc(F)cc4)C[C@@H]2C(C)(C)C3)cc1 [Example 55, (1S,5S)-6-(4-ethoxyphenyl)-3-((4-fluorophenyl)sulfonyl)-9,9-dimethyl-3,6-diazabicyclo[3.2.2]nonane] | 100 | – | –
CCOc1ccc(N2C[C@@H]3CC(C)(C)[C@H]2CCN3C(=O)NCCO)cc1 [Example 20, (1S,5R)-6-(4-ethoxyphenyl)-N-(2-hydroxyethyl)-9,9-dimethyl-2,6-diazabicyclo[3.2.2]nonane-2-carboxamide] | 79 | – | –
CCOc1ccc(N2C[C@H]3CN(Cc4ccc(Cl)cc4)C[C@@H]2C(C)(C)C3)cc1 [Example 40, (1R,5S)-3-(4-chlorobenzyl)-6-(4-ethoxyphenyl)-9,9-dimethyl-3,6-diazabicyclo[3.2.2]nonane] | 68 | – | –
CCCCc1ccc(N2C[C@H]3CN(C(=O)NCCO)C[C@@H]2C(C)(C)C3)cc1 [Example 33, (1S,5S)-6-(4-butylphenyl)-N-(2-hydroxyethyl)-9,9-dimethyl-3,6-diazabicyclo[3.2.2]nonane-3-carboxamide] | 69.3 | – | –
CCOc1ccc(N2C[C@H]3CN(c4ccc(NC(C)=O)cc4)C[C@@H]2C(C)(C)C3)cc1 [Example 58, N-(4-((1R,5S)-6-(4-ethoxyphenyl)-9,9-dimethyl-3,6-diazabicyclo[3.2.2]nonan-3-yl)phenyl)acetamide] | 100 | – | –
CCNC(=O)N1C[C@@H]2CN(c3ccc(OCCOC)cc3)[C@H](C1)C(C)(C)C2 [Example 3, (1S,5S)—N-ethyl-6-(4-(2-methoxyethoxy)phenyl)-9,9-dimethyl-3,6-diazabicyclo[3.2.2]nonane-3-carboxamide] | 88 | – | –
CCOc1ccc(N2C[C@H]3CN(C(=O)N(C)CCC#N)C[C@@H]2C(C)(C)C3)cc1 [Example 16, (1S,5S)-N-(2-cyanoethyl)-6-(4-ethoxyphenyl)-N,9,9-trimethyl-3,6-diazabicyclo[3.2.2]nonane-3-carboxamide] | 88 | – | –
CCOc1ccc(N2C[C@H]3CN(C(=O)CCC#N)C[C@@H]2C(C)(C)C3)cc1 [Example 50, 4-((1S,5S)-6-(4-Ethoxyphenyl)-9,9-dimethyl-3,6-diazabicyclo[3.2.2]nonan-3-yl)-4-oxobutanenitrile] | 57 | – | –
CC1(C)C[C@@H]2CN(C(=O)NCCO)C[C@H]1N(c1ccc(N3CCC(F)(F)CC3)cc1)C2 [Example 30, (1S,5S)-6-(4-(4,4-difluoropiperidin-1-yl)phenyl)-N-(2-hydroxyethyl)-9,9-dimethyl-3,6-diazabicyclo[3.2.2]nonane-3-carboxamide] | 100 | 6.48 | –
CCOc1ccc(N2C[C@H]3CN(S(=O)(=O)N4CCOCC4)C[C@@H]2C(C)(C)C3)cc1 [Example 57, 4-(((1S,5S)-6-(4-ethoxyphenyl)-9,9-dimethyl-3,6-diazabicyclo[3.2.2]nonan-3-yl)sulfonyl)morpholine] | 93 | – | –
CCOc1ccc(N2C[C@H]3CN(C(=O)Nc4cc(C)n[nH]4)C[C@@H]2C(C)(C)C3)cc1 [Example 25, (1S,5S)-6-(4-ethoxyphenyl)-9,9-dimethyl-N-(3-methyl-1H-pyrazol-5-yl)-3,6-diazabicyclo[3.2.2]nonane-3-carboxamide] | 73 | – | –
CC1(C)C[C@@H]2CN(C(=O)NC3CCS(=O)(=O)CC3)C[C@H]1N(c1ccc(N3CCS(=O)(=O)CC3)cc1)C2 [Example 11, (1S,5S)-N-(1,1-dioxidotetrahydro-2H-thiopyran-4-yl)-6-(4-(1,1-dioxidothiomorpholino)phenyl)-9,9-dimethyl-3,6-diazabicyclo[3.2.2]nonane-3-carboxamide] | 100 | – | –
COc1cc(OC)cc(N2C[C@H]3CN(C(=O)N4CCS(=O)(=O)CC4)C[C@@H]2C(C)(C)C3)c1 [Example 65, ((1S,5S)-6-(3,5-dimethoxyphenyl)-9,9-dimethyl-3,6-diazabicyclo[3.2.2]nonan-3-yl)(1,1-dioxidothiomorpholino)methanone] | 88 | – | –
CCOc1ccc(N2C[C@H]3CN(C(=O)CNC(=N)CN)C[C@@H]2C(C)(C)C3)cc1 [Example 53, 2-amino-N-(2-((1S,5S)-6-(4-ethoxyphenyl)-9,9-dimethyl-3,6-diazabicyclo[3.2.2]nonan-3-yl)-2-oxoethyl)acetimidamide] | 100 | – | –
CC1(C)C[C@@H]2CN(C(=O)NCCO)C[C@H]1N(c1ccc(Oc3ccccn3)cc1)C2 [Example 28, (1S,5S)-N-(2-hydroxyethyl)-9,9-dimethyl-6-(4-(pyridin-2-yloxy)phenyl)-3,6-diazabicyclo[3.2.2]nonane-3-carboxamide] | 100 | – | –
CCOc1ccc(N2C[C@H]3CN(C(=O)N(CCO)CCO)C[C@@H]2C(C)(C)C3)cc1 [Example 14, (1S,5S)-6-(4-ethoxyphenyl)-N,N-bis(2-hydroxyethyl)-9,9-dimethyl-3,6-diazabicyclo[3.2.2]nonane-3-carboxamide] | 75 | – | –
